Experimental data: patent US8962648B2, “Tricyclic compounds and PBK inhibitors containing the same” (OncoTherapy Science, Inc., priority 2010, dated 2015)
Structures can show the parent of a compound that is named as a salt. Where two headings read alike, the source gives them in different places.

Columns and labels:
[1] = biological target: PBK (Homo sapiens (Human), UniProt Q96KB5); assay: Kinase assay (IMAP fluorescence polarization, FITC-labeled histone H3 peptide); format: biochemical
Description: PBK activity was determined in the presence or absence of compounds using fluorescein isothiocyanate-labeled (FITC-labeled) histone H3 peptide as a substrate. […] The serially diluted compounds, 0.8 ng/micro-L PBK (Carna Biosciences) and 100 nM FITC-labeled histone H3 peptide were reacted in a reaction buffer (20 mM HEPES, 0.01% Tween-20, 0.3 mM MgCl2, 2 mM dithiothreitol, 50 micro-M ATP, pH 7.4) at room temperature for 1 hour. The reaction was stopped by the addition of three fold assay volume of progressive binding solution. […] IC50 values were calculated by nonlinear four parameter fit using SigmaPlot, version 10.0 (Systat Software, Inc.).

[2] = system: A549 cells; assay: Cell-based assay, cellular growth (Cell Counting Kit-8, 72 hours); details: Homo sapiens, A549, 72 h
Description: (§1) 100 micro-L of cell suspension was seeded onto 96-well microtiter plate (ViewPlate-96FTC, PerkinElmer). […] Cellular growth was determined using Cell Counting Kit-8 (DOJINDO) at 72 hours after the exposure of the candidate inhibitors. […] Accurate IC50 values were calculated as described previously.

[3] = system: BT-549 cells; assay: as above; details: Homo sapiens, BT549 cells
Description: as §1

[4] = system: T47D cells; assay: as above; details: Homo sapiens, T47D, 72 h
Description: as §1

[5] = system: HT-1197 cells; assay: Cell-based assay, cellular growth (Cell Counting Kit-8, 72 hours), PBK-negative control cells; details: Homo sapiens, HT1197, 72 h
Description: as §1

[6] = PBK 0.8 ng/micro-L, 50 micro-M ATP, 100 nM FITC-labeled histone H3 peptide, room temperature 1 hour

Sequence of PBK (Q96KB5 whole entry): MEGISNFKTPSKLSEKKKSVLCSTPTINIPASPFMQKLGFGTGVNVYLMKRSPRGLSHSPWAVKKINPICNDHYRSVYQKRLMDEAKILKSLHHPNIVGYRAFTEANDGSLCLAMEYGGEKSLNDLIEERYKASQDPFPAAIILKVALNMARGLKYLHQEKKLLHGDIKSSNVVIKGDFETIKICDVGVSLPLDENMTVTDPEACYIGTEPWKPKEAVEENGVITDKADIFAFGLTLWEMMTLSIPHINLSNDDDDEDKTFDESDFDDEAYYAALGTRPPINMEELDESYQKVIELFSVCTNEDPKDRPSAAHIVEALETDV

Structure (SMILES)	IC50 [1, 6]	IC50 [2]	IC50 [3]	IC50 [4]	IC50 [5]	IC50 [1]
Cc1cc(O)c(-c2ccc(C(C)CN)c(F)c2)c2c1[nH]c(=O)c1sccc12 (stereo not drawn) [Compound 1190, 9-(4-(1-aminopropan-2-yl)-3-fluorophenyl)-8-hydroxy-6-methylthieno[2,3-c]quinolin-4(5H)-one hydrochloride]	5.1 nM	21 nM	15 nM	19 nM	110 nM	–
Cc1cc(O)c(-c2ccc(CCN)cc2)c2c1[nH]c(=O)c1sccc12 [Compound 1191, 9-(4-(2-aminoethyl)phenyl)-8-hydroxy-6-methylthieno[2,3-c]quinolin-4(5H)-one hydrochloride]	19 nM	120 nM	64 nM	73 nM	480 nM	–
Cc1cc(O)c(-c2ccc(C(C)CN(C)C)c(F)c2)c2c1[nH]c(=O)c1sccc12 (stereo not drawn) [Compound 1193, 9-(4-(1-(dimethylamino)propan-2-yl)-3-fluorophenyl)-8-hydroxy-6-methylthieno[2,3-c]quinolin-4(5H)-one hydrochloride]	–	130 nM	140 nM	240 nM	330 nM	46 nM
COc1cc(Cl)c2[nH]c(=O)c3sccc3c2c1-c1ccc([C@@H](C)CN)cc1 [Compound 1201, (R)-9-(4-(1-aminopropan-2-yl)phenyl)-6-chloro-8-methoxythieno[2,3-c]quinolin-4(5H)-one hydrochloride]	20 nM	46 nM	53 nM	120 nM	140 nM	–
CC(CCl)NS(=O)(=O)c1ccc(-c2c(O)ccc3[nH]c(=O)c4sccc4c23)cc1 (stereo not drawn) [Compound 1204, N-(1-chloropropan-2-yl)-4-(8-hydroxy-4-oxo-4,5-dihydrothieno[2,3-c]quinolin-9-yl)benzenesulfonamide]	15 nM	710 nM	160 nM	1900 nM	15000 nM	–
NCCc1ccc(-c2c(O)cc(Br)c3[nH]c(=O)c4sccc4c23)cc1F [Compound 1213, 9-(4-(2-aminoethyl)-3-fluorophenyl)-6-bromo-8-hydroxythieno[2,3-c]quinolin-4(5H)-one hydrochloride]	19 nM	360 nM	230 nM	380 nM	1700 nM	–
COc1cc(C)c2[nH]c(=O)c3sccc3c2c1-c1ccc(CCN)c(F)c1 [Compound 1216, 9-(4-(2-aminoethyl)-3-fluorophenyl)-8-methoxy-6-methylthieno[2,3-c]quinolin-4(5H)-one hydrochloride]	57 nM	280 nM	210 nM	460 nM	640 nM	–
Cc1cc(O)c(-c2ccc(CCN)c(F)c2)c2c1[nH]c(=O)c1sccc12 [Compound 1217, 9-(4-(2-aminoethyl)-3-fluorophenyl)-8-hydroxy-6-methylthieno[2,3-c]quinolin-4(5H)-one hydrochloride]	4.7 nM	140 nM	65 nM	84 nM	480 nM	–
NCCc1ccc(-c2c(O)cc(Cl)c3[nH]c(=O)c4sccc4c23)cc1F [Compound 1219, 9-(4-(2-aminoethyl)-3-fluorophenyl)-6-chloro-8-hydroxythieno[2,3-c]quinolin-4(5H)-one hydrochloride]	5.5 nM	170 nM	100 nM	180 nM	880 nM	–
Cc1cc(O)c(-c2ccc(CCC#N)cc2)c2c1[nH]c(=O)c1sccc12 [Compound 1226, 3-(4-(8-hydroxy-6-methyl-4-oxo-4,5-dihydrothieno[2,3-c]quinolin-9-yl)phenyl)propanenitrile]	92 nM	490 nM	590 nM	1200 nM	1300 nM	–
Cc1cc(O)c(-c2ccc(C(C)(C)CN)cc2)c2c1[nH]c(=O)c1sccc12 [Compound 1228, 9-(4-(1-amino-2-methylpropan-2-yl)phenyl)-8-hydroxy-6-methylthieno[2,3-c]quinolin-4(5H)-one hydrochloride]	39 nM	160 nM	150 nM	330 nM	810 nM	–
NCC(c1ccc(-c2c(O)ccc3[nH]c(=O)c4sccc4c23)cc1)C1CCCC1 (stereo not drawn) [Compound 1236, 9-(4-(2-amino-1-cyclopentylethyl)phenyl)-8-hydroxythieno[2,3-c]quinolin-4(5H)-one]	4.6 nM	460 nM	510 nM	800 nM	1000 nM	–
COc1ccc2[nH]c(=O)c3sccc3c2c1-c1ccc(C(CN)C2CCCC2)cc1 (stereo not drawn) [Compound 1239, 9-(4-(2-amino-1-cyclopentylethyl)phenyl)-8-methoxythieno[2,3-c]quinolin-4(5H)-one hydrochloride]	–	890 nM	1500 nM	1100 nM	1700 nM	23 nM
Cc1cc(O)c(-c2ccc(CC(C)N)cc2)c2c1[nH]c(=O)c1sccc12 (stereo not drawn) [Compound 1242, 9-(4-(2-aminopropyl)phenyl)-8-hydroxy-6-methylthieno[2,3-c]quinolin-4(5H)-one hydrochloride]	–	120 nM	110 nM	150 nM	420 nM	37 nM
CC(C)C(CN)c1ccc(-c2c(O)ccc3[nH]c(=O)c4sccc4c23)cc1 (stereo not drawn) [Compound 1252, 9-(4-(1-amino-3-methylbutan-2-yl)phenyl)-8-hydroxythieno[2,3-c]quinolin-4(5H)-one]	1.4 nM	160 nM	250 nM	210 nM	420 nM	–
COc1ccc2[nH]c(=O)c3sccc3c2c1-c1ccc(C(CN)C(C)C)cc1 (stereo not drawn) [Compound 1253, 9-(4-(1-amino-3-methylbutan-2-yl)phenyl)-8-methoxythieno[2,3-c]quinolin-4(5H)-one hydrochloride]	–	760 nM	1500 nM	870 nM	1900 nM	4.1 nM
COc1cc(C)c2[nH]c(=O)c3sccc3c2c1-c1ccc(C(C)CN)c(F)c1 (stereo not drawn) [Compound 1273, 9-(4-(1-aminopropan-2-yl)-3-fluorophenyl)-8-methoxy-6-methylthieno[2,3-c]quinolin-4(5H)-one hydrochloride]	–	71 nM	73 nM	170 nM	200 nM	40 nM
Cc1cc(O)c(-c2ccc(C(CN)C(C)C)cc2)c2c1[nH]c(=O)c1sccc12 (stereo not drawn) [Compound 1274, 9-(4-(1-amino-3-methylbutan-2-yl)phenyl)-8-hydroxy-6-methylthieno[2,3-c]quinolin-4(5H)-one]	18 nM	45 nM	66 nM	98 nM	180 nM	–
COc1cc(C)c2[nH]c(=O)c3sccc3c2c1-c1ccc(C(CN)C(C)C)c(F)c1 (stereo not drawn) [Compound 1283, 9-(4-(1-amino-3-methylbutan-2-yl)-3-fluorophenyl)-8-methoxy-6-methylthieno[2,3-c]quinolin-4(5H)-one hydrochloride]	47 nM	560 nM	250 nM	560 nM	530 nM	–
CNCC(c1ccc(-c2c(O)cc(C)c3[nH]c(=O)c4sccc4c23)cc1)C(C)C (stereo not drawn) [Compound 1285, 8-hydroxy-6-methyl-9-(4-(3-methyl-1-(methylamino)butan-2-yl)phenyl)thieno[2,3-c]quinolin-4(5H)-one]	50 nM	230 nM	110 nM	210 nM	280 nM	–
CNCC(C)c1ccc(-c2c(OC)cc(C)c3[nH]c(=O)c4sccc4c23)cc1F (stereo not drawn) [Compound 1286, 9-(3-fluoro-4-(1-(methylamino)propan-2-yl)phenyl)-8-methoxy-6-methylthieno[2,3-c]quinolin-4(5H)-one hydrochloride]	–	95 nM	93 nM	220 nM	220 nM	43 nM
Cc1cc(O)c(-c2ccc(C(CN)C(C)C)c(F)c2)c2c1[nH]c(=O)c1sccc12 (stereo not drawn) [Compound 1288, 9-(4-(1-amino-3-methylbutan-2-yl)-3-fluorophenyl)-8-hydroxy-6-methylthieno[2,3-c]quinolin-4(5H)-one]	20 nM	110 nM	47 nM	74 nM	140 nM	–
CNCC(C)c1ccc(-c2c(O)cc(C)c3[nH]c(=O)c4sccc4c23)cc1F (stereo not drawn) [Compound 1293, 9-(3-fluoro-4-(1-(methylamino)propan-2-yl)phenyl)-8-hydroxy-6-methylthieno[2,3-c]quinolin-4(5H)-one]	8.9 nM	35 nM	32 nM	52 nM	190 nM	–
CNCC(c1ccc(-c2c(O)cc(C)c3[nH]c(=O)c4sccc4c23)cc1F)C(C)C (stereo not drawn) [Compound 1294, 9-(3-fluoro-4-(3-methyl-1-(methylamino)butan-2-yl)phenyl)-8-hydroxy-6-methylthieno[2,3-c]quinolin-4(5H)-one]	17 nM	78 nM	85 nM	180 nM	340 nM	–
